Test results as given in patent US8309734B2 (Hoffmann-La Roche Inc., priority 2008, dated 2012).

biological target: T1, human GPBAR1 receptor (Homo sapiens, UniProt Q8TDU6); test: functional cAMP assay in CHO-dhfr(minus) cells expressing human GPBAR1 receptors; assay type: cell-based; details: cAMP increase (TR-FRET) in CHO-dhfr(minus) cells expressing human GPBAR1; compounds incubated 30 min at 30° C.
T1 construct: expressed in transfected cells
T1 sequence (Q8TDU6 1-330): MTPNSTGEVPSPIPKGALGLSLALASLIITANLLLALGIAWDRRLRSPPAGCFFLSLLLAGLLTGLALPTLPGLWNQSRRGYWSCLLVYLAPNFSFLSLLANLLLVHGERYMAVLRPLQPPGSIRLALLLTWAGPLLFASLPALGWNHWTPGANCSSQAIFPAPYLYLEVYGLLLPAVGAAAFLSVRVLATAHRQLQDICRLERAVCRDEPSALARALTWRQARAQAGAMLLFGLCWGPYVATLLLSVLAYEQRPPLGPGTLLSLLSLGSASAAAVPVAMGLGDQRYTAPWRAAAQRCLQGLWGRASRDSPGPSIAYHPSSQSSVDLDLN

EC50 [nM]	Compound
19	O=C(c1ccncc1Oc1cc(Cl)ccc1Cl)N1CCCc2ccc(F)cc21 [Example 90, [3-(2,5-Dichloro-phenoxy)-pyridin-4-yl]-(7-fluoro-3,4-dihydro-2H-quinolin-1-yl)-methanone]
649	Cc1ccc2c(c1)CCCN2C(=O)c1cccnc1Oc1cccc(Cl)c1 [Example 5, [2-(3-Chloro-phenoxy)-pyridin-3-yl]-(6-methyl-3,4-dihydro-2H-quinolin-1-yl)-methanone]
104	O=C(O)CCCCCN1CCN(C(=O)c2cc(F)cnc2Oc2cc(Cl)ccc2Cl)c2ccccc21 [Example 161, 6-{4-[2-(2,5-Dichloro-phenoxy)-5-fluoro-pyridine-3-carbonyl]-3,4-dihydro-2H-quinoxalin-1-yl}-hexanoic acid]
150	COc1ccccc1N(C)C(=O)c1ccncc1Oc1ccc(Cl)cc1Cl [Example 101, 3-(2,4-Dichloro-phenoxy)-N-(2-methoxy-phenyl)-N-methyl-isonicotinamide]
662	CN(C(=O)c1ccncc1Oc1ccc(F)c(Cl)c1)c1ccccc1Cl [Example 107, 3-(3-Chloro-4-fluoro-phenoxy)-N-(2-chloro-phenyl)-N-methyl-isonicotinamide]
299	O=C(c1ccncc1Oc1ccc(F)c(Cl)c1)N1CCCc2ccc(F)cc21 [Example 103, [3-(3-Chloro-4-fluoro-phenoxy)-pyridin-4-yl]-(7-fluoro-3,4-dihydro-2H-quinolin-1-yl)-methanone]
231	O=C(c1ccccc1Oc1cc(Cl)ccc1Cl)N1CCCc2cc(F)cc(F)c21 [Example 121, [2-(2,5-Dichloro-phenoxy)-phenyl]-(6,8-difluoro-3,4-dihydro-2H-quinolin-1-yl)-methanone]
345	O=C(c1cccnc1Oc1cccc(I)c1)N1CCCc2ccccc21 [Example 21, (3,4-Dihydro-2H-quinolin-1-yl)-[2-(3-iodo-phenoxy)-pyridin-3-yl]-methanone]
144	O=C(c1ccc(C(F)(F)F)nc1Oc1cc(Cl)ccc1Cl)N1CCCc2ccccc21 [Example 29, [2-(2,5-Dichloro-phenoxy)-6-trifluoromethyl-pyridin-3-yl]-(3,4-dihydro-2H-quinolin-1-yl)-methanone]
173	Cc1c(Cl)cccc1N(C)C(=O)c1cccnc1Oc1cc(Cl)ccc1Cl [Example 49, N-(3-Chloro-2-methyl-phenyl)-2-(2,5-dichloro-phenoxy)-N-methyl-nicotinamide]
384	CCOC(=O)CCCN1CCN(C(=O)c2cc(F)cnc2Oc2cc(Cl)ccc2Cl)c2ccccc21 [Example 158, 4-{4-[2-(2,5-Dichloro-phenoxy)-5-fluoro-pyridine-3-carbonyl]-3,4-dihydro-2H-quinoxalin-1-yl}-butyric acid ethyl ester]
47	O=C(O)CCc1cc(Cl)c(Oc2ncccc2C(=O)N2CCN(C3CC3)c3ccccc32)cc1Cl [Example 173, 3-{2,5-Dichloro-4-[3-(4-cyclopropyl-3,4-dihydro-2H-quinoxaline-1-carbonyl)-pyridin-2-yloxy]-phenyl}-propionic acid]
22	O=C(c1ccccc1Oc1cc(Cl)ccc1Cl)N1CCN(C2CC2)c2ccccc21 [Example 184, (4-Cyclopropyl-3,4-dihydro-2H-quinoxalin-1-yl)-[2-(2,5-dichloro-phenoxy)-phenyl]-methanone]
69	O=C(O)c1ccc(CCc2cc(Cl)c(Oc3ncccc3C(=O)N3CCN(C4CC4)c4ccccc43)cc2Cl)cc1 [Example 170, 4-(2-{2,5-Dichloro-4-[3-(4-cyclopropyl-3,4-dihydro-2H-quinoxaline-1-carbonyl)-pyridin-2-yloxy]-phenyl}-ethyl)-benzoic acid]
15	O=C(c1cc(F)cnc1Oc1cc(Cl)ccc1Cl)N1CCNc2ccccc21 [Example 147, [2-(2,5-Dichloro-phenoxy)-5-fluoro-pyridin-3-yl]-(3,4-dihydro-2H-quinoxalin-1-yl)-methanone]
